Assay results: patent US6686355B2, “Biphenyl sulfonamides useful as matrix metalloproteinase inhibitors” (Warner-Lambert Company, priority 2001, dated 2004)

Key:
Format in all cases: biochemical
[1] = molecular target: T1, MMP-2FL (full length Gelatinase A) (Homo sapiens, UniProt P08253); experiment: Thiopeptolide hydrolysis assay, MMP-2FL; conditions: thiopeptolide substrate, HEPES pH 7.0, 22° C.
T1 sequence (P08253 110-660): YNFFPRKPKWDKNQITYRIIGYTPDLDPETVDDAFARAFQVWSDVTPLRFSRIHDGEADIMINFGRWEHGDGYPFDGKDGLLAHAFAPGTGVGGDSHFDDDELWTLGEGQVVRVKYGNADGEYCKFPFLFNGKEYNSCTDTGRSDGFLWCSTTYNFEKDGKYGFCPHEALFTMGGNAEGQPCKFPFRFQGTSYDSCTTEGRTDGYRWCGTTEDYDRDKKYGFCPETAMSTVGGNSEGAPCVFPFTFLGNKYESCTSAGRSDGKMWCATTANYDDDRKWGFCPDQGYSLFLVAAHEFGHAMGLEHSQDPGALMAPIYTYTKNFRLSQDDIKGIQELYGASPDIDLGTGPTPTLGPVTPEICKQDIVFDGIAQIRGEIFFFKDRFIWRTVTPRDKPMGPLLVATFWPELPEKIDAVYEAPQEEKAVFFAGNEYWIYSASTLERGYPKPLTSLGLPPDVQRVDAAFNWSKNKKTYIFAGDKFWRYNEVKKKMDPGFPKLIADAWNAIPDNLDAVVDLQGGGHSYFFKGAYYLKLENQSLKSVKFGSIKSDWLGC
Excerpt: (§1) The assays measure the amount by which a test compound reduces the hydrolysis of a thiopeptolide substrate catalyzed by a matrix metalloproteinase enzyme. Such assays are described in detail by Ye et al., in Biochemistry, 1992;31(45):11231-11235, which is incorporated herein by reference.
(§2) Thiopeptolide substrates show virtually no decomposition or hydrolysis at or below neutral pH in the absence of a matrix metalloproteinase enzyme. A typical thiopeptolide substrate commonly utilized for assays is Ac-Pro-Leu-Gly-thioester-Leu-Leu-Gly-OEt. A 100 μL assay mixture will contain 50 mM of N-2-hydroxyethylpiperazine-N′-2-ethanesulfonic acid buffer (“HEPES”) at pH 7.0, 10 mM CaCl2, 100 μM thiopeptolide substrate, and 1 mM 5,5″-dithio-bis-(2-nitro-benzoic acid) (DTNB). The thiopeptolide substrate concentration may be varied from, for example, 10 to 800 μM to obtain Km and Kcat values. The change in absorbance at 405 nm is monitored on a Thermo Max microplate reader (Molecular Devices, Menlo Park, Calif.) at room temperature (22° C.). The calculation of the amount of hydrolysis of the thiopeptolide substrate is based on E412=13600 M^−1 cm^−1 for the DTNB-derived product 3-carboxy4-nitrothiophenoxide. Assays are carried out with and without matrix metalloproteinase inhibitor compounds, and the amount of hydrolysis is compared for a determination of inhibitory activity of the test compounds.
(§3) Several representative compounds have been evaluated for their ability to inhibit various matrix metalloproteinase enzymes. In Table I, MMP-1FL refers to full length interstitial collagenase; MMP-2FL refers to full length Gelatinase A; MMP-3CD refers to the catalytic domain of stromelysin-1; MMP-7FL refers to full length matrilysin; MMP-9FL refers to full length Gelatinase B; MMP-13CD refers to the catalytic domain of collagenase 3; and MMP-14CD refers to the catalytic domain of MMP-14. Test compounds were evaluated at various concentrations in order to determine their respective IC50 values, the micromolar concentration of compound required to cause a 50% inhibition of the catalytic activity of the respective enzyme.

[2] = molecular target: MMP-3CD (catalytic domain of stromelysin-1) (Homo sapiens, UniProt P08254); experiment: Thiopeptolide hydrolysis assay, MMP-3CD; conditions: thiopeptolide substrate, MES pH 6.0
MMP-3CD (catalytic domain of stromelysin-1), sequence (P08254 100-272 limits assumed): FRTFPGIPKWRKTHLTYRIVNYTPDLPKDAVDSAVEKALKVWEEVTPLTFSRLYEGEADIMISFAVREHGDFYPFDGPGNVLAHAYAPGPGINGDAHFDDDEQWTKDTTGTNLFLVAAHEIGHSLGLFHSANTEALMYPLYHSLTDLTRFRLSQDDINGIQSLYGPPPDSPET
Excerpt: as §1, §2, §3
It should be appreciated that the assay buffer used with MMP-3CD was 50 mM of 2-morpholinoethanesulfonic acid monohydrate (“MES”) at pH 6.0 rather than the HEPES buffer at pH 7.0 described above.

[3] = molecular target: MMP-9FL (full length Gelatinase B) (Homo sapiens, UniProt P14780); experiment: Thiopeptolide hydrolysis assay, MMP-9FL; conditions: thiopeptolide substrate, HEPES pH 7.0, 22° C.
MMP-9FL (full length Gelatinase B), sequence (P14780 94-707, species assumed): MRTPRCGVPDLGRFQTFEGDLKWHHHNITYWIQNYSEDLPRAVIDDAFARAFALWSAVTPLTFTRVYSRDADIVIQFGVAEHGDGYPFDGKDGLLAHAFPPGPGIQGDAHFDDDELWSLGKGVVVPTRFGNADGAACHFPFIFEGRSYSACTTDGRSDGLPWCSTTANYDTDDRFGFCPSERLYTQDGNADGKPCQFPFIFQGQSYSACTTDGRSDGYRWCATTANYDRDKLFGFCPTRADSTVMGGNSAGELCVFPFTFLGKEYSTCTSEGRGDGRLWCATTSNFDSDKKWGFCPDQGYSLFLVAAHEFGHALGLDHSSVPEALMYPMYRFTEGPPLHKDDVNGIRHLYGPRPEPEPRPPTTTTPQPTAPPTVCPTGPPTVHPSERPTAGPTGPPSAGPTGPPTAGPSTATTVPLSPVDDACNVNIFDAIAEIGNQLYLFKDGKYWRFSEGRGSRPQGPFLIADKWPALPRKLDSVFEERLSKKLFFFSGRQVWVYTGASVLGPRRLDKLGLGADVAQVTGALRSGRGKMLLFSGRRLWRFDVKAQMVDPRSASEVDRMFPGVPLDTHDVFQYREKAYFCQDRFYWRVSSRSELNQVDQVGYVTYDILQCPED
Excerpt: as §1, §2, §3

[4] = molecular target: MMP-13CD (catalytic domain of collagenase 3) (Homo sapiens, UniProt P45452); experiment: Thiopeptolide hydrolysis assay, MMP-13CD; conditions: thiopeptolide substrate, HEPES pH 7.0, 22° C.
Excerpt: as §1, §2, §3

Compound	IC50 [1] [µM]	IC50 [2] [µM]	IC50 [3] [µM]	IC50 [4] [µM]
CC1(C)SCCN(S(=O)(=O)c2ccc(-c3cccc([N+](=O)[O-])c3)cc2)[C@H]1C(=O)O [Example 27, (S)-2,2-Dimethyl-4-(3′-nitro-biphenyl-4-sulfonyl)-thiomorpholine-3-carboxylic acid]	> 100	> 100	> 100	> 100
CC1(C)SCCN(S(=O)(=O)c2ccc(-c3cccc4ccccc34)cc2)[C@H]1C(=O)O [Example 28, (S)-2,2-Dimethyl-4-(4-naphthalen-1-yl-benzenesulfonyl)-thiomorpholine-3-carboxylic acid]	2.07	2.2	22.8	2.67
CC1(C)SCCN(S(=O)(=O)c2ccc(-c3ccc(Cl)cc3)cc2)[C@H]1C(=O)O [Example 29, (S)-4-(4′-Chloro-biphenyl-4-sulfonyl)-2,2-dimethyl-thiomorpholine-3-carboxylic acid]	> 100	> 100	> 100	> 100
CC1(C)SCCN(S(=O)(=O)c2ccc(-c3ccc(C=O)cc3)cc2)[C@H]1C(=O)O [Example 30, (S)-4-(4′-Formyl-biphenyl-4-sulfonyl)-2,2-dimethyl-thiomorpholine-3-carboxylic acid]	0.042	0.0154	3.6	0.096
Cc1cccc(-c2ccc(S(=O)(=O)N3CCSC(C)(C)[C@@H]3C(=O)O)cc2)c1 [Example 31, (S)-2,2-Dimethyl-4-(3′-methyl-biphenyl-4-sulfonyl)-thiomorpholine-3-carboxylic acid]	> 100	> 100	1.57	> 100
CC1(C)SCCN(S(=O)(=O)c2ccc(-c3ccc(F)cc3)cc2)[C@H]1C(=O)O [Example 32, (S)-4-(4′-Fluoro-biphenyl-4-sulfonyl)-2,2-dimethyl-thiomorpholine-3-carboxylic acid]	0.133	0.0365	4.43	0.145
CC1(C)SCCN(S(=O)(=O)c2ccc(-c3ccc4c(c3)OCO4)cc2)[C@H]1C(=O)O [Example 33, (S)-4-(4-1,3-Benzodioxol-5-yl-benzenesulfonyl)-2,2-dimethyl-thiomorpholine-3-carboxylic acid]	0.0185	0.0148	3.15	0.0443
CC1(C)SCCN(S(=O)(=O)c2ccc(-c3cccc(Cl)c3)cc2)[C@H]1C(=O)O [Example 34, (S)-4-(3′-Chloro-biphenyl-4-sulfonyl)-2,2-dimethyl-thiomorpholine-3-carboxylic acid]	0.187	0.0703	10.3	0.243
CC1(C)SCCN(S(=O)(=O)c2ccc(-c3cccc(C=O)c3)cc2)[C@H]1C(=O)O [Example 35, (S)-4-(3′-Formyl-biphenyl-4-sulfonyl)-2,2-dimethyl-thiomorpholine-3-carboxylic acid]	0.035	0.0154	0.479	0.021
CC1(C)SCCN(S(=O)(=O)c2ccc(-c3ccc(F)c(Cl)c3)cc2)[C@H]1C(=O)O [Example 42, (S)-4-(3′-Chloro-4′-fluoro-biphenyl-4-sulfonyl)-2,2-dimethyl-thiomorpholine-3-carboxylic acid]	0.16	0.0289	9.15	0.113
CC(C)c1ccc(-c2ccc(S(=O)(=O)N3CCSC(C)(C)[C@@H]3C(=O)O)cc2)cc1 [Example 44, (S)-4-(4′-Isopropyl-biphenyl-4-sulfonyl)-2,2-dimethyl-thiomorpholine-3-carboxylic acid]	0.015	0.0088	0.37	0.02
CC(C)(C)c1ccc(-c2ccc(S(=O)(=O)N3CCSC(C)(C)[C@@H]3C(=O)O)cc2)cc1 [Example 49, (S)-4-(4′-tert-Butyl-biphenyl-4-sulfonyl)-2,2-dimethyl-thiomorpholine-3-carboxylic acid]	0.23	0.039	1.5	0.061
CC1(C)SCCN(S(=O)(=O)c2ccc(-c3ccc(Cl)s3)cc2)[C@H]1C(=O)O [Example 50, (S)-4-[4-(5-Chloro-thiophen-2-yl)-benzenesulfonyl]-2,2-dimethyl-thiomorpholine-3-carboxylic acid]	0.024	0.019	1.5	0.12
Cc1cc(-c2ccc(S(=O)(=O)N3CCSC(C)(C)[C@@H]3C(=O)O)cc2)ccc1F [Example 51, (S)-4-(4′-Fluoro-3′-methyl-biphenyl-4-sulfonyl)-2,2-dimethyl-thiomorpholine-3-carboxylic acid]	0.027	0.01	1	0.012
Cc1ccc(-c2ccc(S(=O)(=O)N3CCSC(C)(C)[C@@H]3C(=O)O)cc2)s1 [Example 52, (S)-2,2-Dimethyl-4-[4-(5-methyl-thiophen-2-yl)-benzenesulfonyl]-thiomorpholine-3-carboxylic acid]	0.013	0.014	0.52	0.036
COc1cc(-c2ccc(S(=O)(=O)N3CCSC(C)(C)[C@@H]3C(=O)O)cc2)cc(OC)c1OC [Example 55, (S)-2,2-Dimethyl-4-(3′,4′,5′-trimethoxy-biphenyl-4-sulfonyl)-thiomorpholine-3-carboxylic acid]	8.8	8.9	59	7.7
CC1(C)SCCN(S(=O)(=O)c2ccc(-c3ccc(Cl)cc3Cl)cc2)[C@H]1C(=O)O [Example 56, (S)-4-(2′,4′-Dichloro-biphenyl-4-sulfonyl)-2,2-dimethyl-thiomorpholine-3-carboxylic acid]	0.81	1.5	18	1.1
CC1(C)SCCN(S(=O)(=O)c2ccc(-c3ccc(C(F)(F)F)cc3)cc2)[C@H]1C(=O)O [Example 57, (S)-2,2-Dimethyl-4-(4′-trifluoromethyl-biphenyl-4-sulfonyl)-thiomorpholine-3-carboxylic acid]	0.0088	0.0045	0.54	0.013
CC1(C)SCCN(S(=O)(=O)c2ccc(-c3cccc(F)c3)cc2)[C@H]1C(=O)O [Example 58, (S)-4-(3′-Fluoro-biphenyl-4-sulfonyl)-2,2-dimethyl-thiomorpholine-3-carboxylic acid]	0.134	0.082	6.3	0.425
COc1cccc(OC)c1-c1ccc(S(=O)(=O)N2CCSC(C)(C)[C@@H]2C(=O)O)cc1 [Example 60, (S)-4-(2′,6′-Dimethoxy-biphenyl-4-sulfonyl)-2,2-dimethyl-thiomorpholine-3-carboxylic acid]	39	9.95	–	25.5
CC1(C)SCCN(S(=O)(=O)c2ccc(-c3cccc(C#N)c3)cc2)[C@H]1C(=O)O [Example 62, (S)-4-(3′-Cyano-biphenyl-4-sulfonyl)-2,2-dimethyl-thiomorpholine-3-carboxylic acid]	6.2	0.83	–	4.9
CC1(C)SCCN(S(=O)(=O)c2ccc(-c3ccccc3C=O)cc2)[C@H]1C(=O)O [Example 63, (S)-4-(2′-Formyl-biphenyl-4-sulfonyl)-2,2-dimethyl-thiomorpholine-3-carboxylic acid]	68	21	–	62.5
